Data published in US10711004B2 (Genentech, Inc., priority 2018, dated 2020).
Where two headings read alike, the source gives them in different places.

Molecular target: human TRPA1 channel (Homo sapiens (Human), UniProt O75762)
Assay: hTRPA1 CHO Ca2+ FLIPR Tetra assay, block of cinnamaldehyde induced calcium influx
Type: cell-based
Details: for IC50: CHO cells expressing TRPA1, Hill coefficient fixed to 1.5; for TRPA1 IC50 compared with 3-azabicyclo[3.1.0]hexene linker and cyclobutylene linker analogues: bicyclo[3.1.0]hexene linker compounds versus same-substituent analogues (compounds 16, 191; 26, 1)
Procedure, shortened: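 Calcium-dye-loaded TRPA1-expressing CHO cells in HBSS/20 mM HEPES pH 7.4, 0.02% BSA were preincubated with compound for 10 or 90 min at room temperature. Calcium influx evoked by roughly an EC50 concentration of cinnamaldehyde was then read on FLIPR Tetra; IC50 came from curve fits with a fixed Hill coefficient.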

[1] = read-out: hTRPA1 IC50 (10 min), compounds incubated 10 minutes at room temperature before cinnamaldehyde agonist
[2] = read-out: hTRPA1 IC50 (90 min), compounds incubated 90 minutes at room temperature before cinnamaldehyde agonist

Sequence of human TRPA1 channel (O75762 whole entry): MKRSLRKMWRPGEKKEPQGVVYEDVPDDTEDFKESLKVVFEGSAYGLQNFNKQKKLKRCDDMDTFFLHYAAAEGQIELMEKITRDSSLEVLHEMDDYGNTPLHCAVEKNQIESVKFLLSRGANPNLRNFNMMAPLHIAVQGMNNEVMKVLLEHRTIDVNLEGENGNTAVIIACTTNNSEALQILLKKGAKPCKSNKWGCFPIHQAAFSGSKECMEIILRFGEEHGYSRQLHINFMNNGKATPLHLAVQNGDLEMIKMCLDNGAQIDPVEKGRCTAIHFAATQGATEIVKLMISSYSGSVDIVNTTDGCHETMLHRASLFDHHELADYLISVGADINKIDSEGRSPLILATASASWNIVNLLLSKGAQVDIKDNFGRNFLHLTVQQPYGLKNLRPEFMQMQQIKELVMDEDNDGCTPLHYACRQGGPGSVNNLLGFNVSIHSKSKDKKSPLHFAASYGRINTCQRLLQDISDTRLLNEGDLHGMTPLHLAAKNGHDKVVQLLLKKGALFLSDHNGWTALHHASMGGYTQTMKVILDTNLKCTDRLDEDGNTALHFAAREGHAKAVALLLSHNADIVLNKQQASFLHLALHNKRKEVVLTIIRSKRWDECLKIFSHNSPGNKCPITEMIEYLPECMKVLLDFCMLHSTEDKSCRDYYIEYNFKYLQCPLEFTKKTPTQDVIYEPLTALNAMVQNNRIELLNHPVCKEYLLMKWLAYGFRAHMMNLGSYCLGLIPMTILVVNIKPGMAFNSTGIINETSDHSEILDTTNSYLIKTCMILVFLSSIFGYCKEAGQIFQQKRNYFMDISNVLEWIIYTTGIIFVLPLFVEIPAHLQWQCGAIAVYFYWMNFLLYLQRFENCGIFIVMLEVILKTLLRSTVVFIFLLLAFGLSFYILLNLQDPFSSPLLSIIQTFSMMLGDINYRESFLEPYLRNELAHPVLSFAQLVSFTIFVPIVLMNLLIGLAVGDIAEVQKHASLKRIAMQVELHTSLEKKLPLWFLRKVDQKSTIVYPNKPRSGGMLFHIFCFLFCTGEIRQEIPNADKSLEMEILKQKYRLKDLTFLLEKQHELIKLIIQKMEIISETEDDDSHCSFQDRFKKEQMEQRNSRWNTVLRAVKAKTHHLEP

Row | SMILES | IC50 [1] [nM] | IC50 [2] [nM] | TRPA1 IC50 compared with 3-azabicyclo[3.1.0]hexene linker and cyclobutylene linker analogues
1 | Cn1cnc2ncn(Cc3nc([C@H]4[C@@H]5CN(c6ccc7scnc7c6)C[C@@H]54)no3)c(=O)c21 [Example Compound 221, 1-((3-((1R,5S,6r)-3-(benzo[d]thiazol-5-yl)-3-azabicyclo[3.1.0]hexan-6-yl)-1,2,4-oxadiazol-5-yl)methyl)-7-methyl-1,7-dihydro-6H-purin-6-one] | 94 | 41 | 
2 | Cc1cccc(N2C[C@@H]3[C@H](C2)[C@H]3c2noc(Cn3cnc4ncn(C)c4c3=O)n2)c1 [Example Compound 224, 7-methyl-1-((3-((1R,5S,6r)-3-(m-tolyl)-3-azabicyclo[3.1.0]hexan-6-yl)-1,2,4-oxadiazol-5-yl)methyl)-1,7-dihydro-6H-purin-6-one] | 71.6 | 19 | 
3 | Cn1cnc2ncn(Cc3nc([C@H]4[C@@H]5C=C(c6ccccc6)C[C@@H]54)no3)c(=O)c21 [Example Compound 225, 7-methyl-1-((3-((1S,5S,6R)-3-phenylbicyclo[3.1.0]hex-2-en-6-yl)-1,2,4-oxadiazol-5-yl)methyl)-1,7-dihydro-6H-purin-6-one] | 13.8 | 1.7 | improved TRPA1 IC50 values
4 | Cn1cnc2ncn(Cc3nc([C@@H]4[C@H]5C=C(c6ccccc6)C[C@H]54)no3)c(=O)c21 [Example Compound 226, 7-methyl-1-((3-((1R,5R,6S)-3-phenylbicyclo[3.1.0]hex-2-en-6-yl)-1,2,4-oxadiazol-5-yl)methyl)-1,7-dihydro-6H-purin-6-one] | 21.6 | 9.9 | improved TRPA1 IC50 values
5 | Cc1ccnc2ncn(Cc3nc([C@@H]4[C@H]5C=C(c6ccccc6)C[C@H]54)no3)c(=O)c12 [Example Compound 227, 5-methyl-3-((3-((1R,5R,6S)-3-phenylbicyclo[3.1.0]hex-2-en-6-yl)-1,2,4-oxadiazol-5-yl)methyl)pyrido[2,3-d]pyrimidin-4(3H)-one] | 14 |  | 
6 | Cn1cnc2ncn(Cc3nc([C@H]4[C@@H]5CN(c6ccccn6)C[C@@H]54)no3)c(=O)c21 [Example Compound 228, 7-methyl-1-((3-((1R,5S,6r)-3-(pyridin-2-yl)-3-azabicyclo[3.1.0]hexan-6-yl)-1,2,4-oxadiazol-5-yl)methyl)-1,7-dihydro-6H-purin-6-one] | 223 | 130 | 

More lines, now with the values ahead:

Row | IC50 [1] [nM] | IC50 [2] [nM] | TRPA1 IC50 compared with 3-azabicyclo[3.1.0]hexene linker and cyclobutylene linker analogues | SMILES
7 | 54.6 |  |  | Cn1cnc2ncn(Cc3nc([C@H]4C[C@H](c5ccc(F)c(Cl)c5)C4)no3)c(=O)c21 [Example Compound 220, 1-((3-((1r,3r)-3-(3-chloro-4-fluorophenyl)cyclobutyl)-1,2,4-oxadiazol-5-yl)methyl)-7-methyl-1,7-dihydro-6H-purin-6-one]
8 | 29.7 | 6.7 |  | Cn1cnc2ncn(Cc3nc([C@H]4[C@@H]5CN(c6c(F)ccc(Cl)c6F)C[C@@H]54)no3)c(=O)c21 [Example Compound 222, 1-((3-((1R,5S,6r)-3-(3-chloro-2,6-difluorophenyl)-3-azabicyclo[3.1.0]hexan-6-yl)-1,2,4-oxadiazol-5-yl)methyl)-7-methyl-1,7-dihydro-6H-purin-6-one]
9 | 22.2 |  |  | Cn1cnc2ncn(Cc3nc([C@H]4CC[C@H](c5ccc(Cl)cc5)C4)no3)c(=O)c21 [Example Compound 223, 1-((3-((1S,3S)-3-(4-chlorophenyl)cyclopentyl)-1,2,4-oxadiazol-5-yl)methyl)-7-methyl-1,7-dihydro-6H-purin-6-one]
10 | 21.7 | 10 |  | Cn1cnc2ncn(Cc3nc([C@H]4[C@@H]5CN(c6ccc(Cl)c(F)c6)C[C@@H]54)no3)c(=O)c21 [Example Compound 229, 1-((3-((1R,5S,6r)-3-(4-chloro-3-fluorophenyl)-3-azabicyclo[3.1.0]hexan-6-yl)-1,2,4-oxadiazol-5-yl)methyl)-7-methyl-1,7-dihydro-6H-purin-6-one]
